These results are taken from ChEMBL document CHEMBL1201862, “PubChem BioAssay data set” (2004).

Among the test systems are HCT-116; HL-60; HOP-92; HT-29; IGROV-1; K562; MDA-MB-435; NCI-H23; OVCAR-5; OVCAR-8; PC-3; RPMI-8226; RXF 393; SK-MEL-5; SNB-19; T47D; UO-31; Hs-578T; NCI-H460.
What all share (experiment): NCI tumour cell line growth inhibition, 48 h

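Results reflect a 48-hour exposure of cells in 96-well plates to compound at five concentrations. Here, GI50 denotes the concentration required for 50% inhibition of growth.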 The source made the active and inactive calls. Rule as the data show it: active = GI50 up to about 1.1 µM and inactive = higher.

In the case of `N#Cc1c(C#N)c(-c2ccco2)n(-c2ccccc2)c1N`, the GI50 was > 100 µM (inactive) in the experiment with HCT-116; > 100 µM (inactive) in the experiment on HL-60; 49.8 µM (inactive) with HOP-92; > 100 µM (inactive) with HT-29; > 100 µM (inactive) with IGROV-1; > 100 µM (inactive) in the experiment on K562. The GI50 in the experiment on MDA-MB-435 is > 100 µM (inactive); in the experiment on NCI-H23 it was > 100 µM (inactive); with OVCAR-5 it was > 100 µM (inactive); in the experiment with OVCAR-8, 22.6 µM (inactive); with PC-3, > 100 µM (inactive); in the experiment with RPMI-8226, > 100 µM (inactive). Also, the GI50 in the experiment on RXF 393 is > 100 µM (inactive); with SK-MEL-5, > 100 µM (inactive); in the experiment on SNB-19, 39.2 µM (inactive); with T47D, 11.7 µM (inactive); with UO-31, > 100 µM (inactive).

Consider `Cc1nc2ccc(C(F)(F)F)cc2nc1NCc1ccc(Cl)c(Cl)c1`, for which the GI50 in the experiment with HCT-116 was 16.4 µM (inactive); in the experiment with HL-60 it was 16.7 µM (inactive); in the experiment on HT-29 it was 15 µM (inactive); in the experiment with Hs-578T it was 23.6 µM (inactive); with IGROV-1 it was 16.6 µM (inactive); in the experiment with K562, 20.4 µM (inactive). Also, the GI50 in the experiment with MDA-MB-435 is 17.4 µM (inactive); in the experiment on NCI-H23, 16 µM (inactive); in the experiment with NCI-H460 it was 32.3 µM (inactive); with OVCAR-5, 13.1 µM (inactive); in the experiment on OVCAR-8, 17.2 µM (inactive); in the experiment on PC-3, 12.9 µM (inactive). For the same compound, the GI50 in the experiment on RPMI-8226 was 17.1 µM (inactive); in the experiment with RXF 393, 12.5 µM (inactive); with SK-MEL-5 it was 19.6 µM (inactive); in the experiment with SNB-19 it was 18.4 µM (inactive); in the experiment on T47D, 0.735 µM (active); in the experiment on UO-31 it was 15.9 µM (inactive).

On to `O=C(CCc1ccc(O)cc1)c1c(O)cc(O)cc1OC1OC(CO)C(O)C(O)C1O` (stereo unspecified), for which the GI50 in the experiment with HCT-116, in the experiment on HOP-92, in the experiment on HT-29, with Hs-578T, with IGROV-1 and with K562 was > 100 µM (inactive) in each case. The GI50 in the experiment with MDA-MB-435, in the experiment with NCI-H23, with OVCAR-5, with PC-3, in the experiment with SK-MEL-5 and with T47D was > 100 µM (inactive) throughout. For the same compound, in the experiment on UO-31, the GI50 was > 100 µM (inactive).

`N#CC1=C(N)N(c2ccccc2)C(c2ccccc2)C1(C#N)C#N` (stereo unspecified): the GI50 with HCT-116 is 14.5 µM (inactive); with HL-60, 17 µM (inactive); in the experiment on HT-29, 15.7 µM (inactive); in the experiment with Hs-578T, 30 µM (inactive); in the experiment with IGROV-1, 15.7 µM (inactive); with K562, 6.05 µM (inactive). The GI50 in the experiment on MDA-MB-435 was 18.8 µM (inactive); with NCI-H23 it was 20.8 µM (inactive); in the experiment with OVCAR-5, 16.1 µM (inactive); with OVCAR-8 it was 16.2 µM (inactive); with PC-3 it was 17.7 µM (inactive); with RPMI-8226 it was 14.8 µM (inactive). Moreover, the GI50 in the experiment on RXF 393 is 15 µM (inactive); in the experiment with SK-MEL-5 it was 13.5 µM (inactive); in the experiment with SNB-19, 18.4 µM (inactive); with T47D it was 10.4 µM (inactive); in the experiment with UO-31, 18.1 µM (inactive).

Consider `c1ccc(-c2cn3nc(N4CCOCC4)sc3n2)cc1`, for which the GI50 with HCT-116 was > 100 µM (inactive); with HL-60, > 100 µM (inactive); in the experiment on HT-29 it was > 100 µM (inactive); in the experiment on Hs-578T, 60 µM (inactive); with IGROV-1, 62.4 µM (inactive); with K562, > 100 µM (inactive). In addition, the GI50 was > 100 µM (inactive) in the experiment on MDA-MB-435; > 100 µM (inactive) with NCI-H23; 54.1 µM (inactive) with NCI-H460; > 100 µM (inactive) in the experiment on OVCAR-5; 31.8 µM (inactive) with OVCAR-8; > 100 µM (inactive) with PC-3. For the same compound, the GI50 in the experiment on RPMI-8226 was > 100 µM (inactive); in the experiment with RXF 393 it was 83.6 µM (inactive); in the experiment with SK-MEL-5, > 100 µM (inactive); with SNB-19 it was > 100 µM (inactive); with T47D, 56.8 µM (inactive); with UO-31, > 100 µM (inactive).

Consider `CC(=O)OCc1cc2ccccc2nc1C(Br)(Br)Br`, for which the GI50 in the experiment with HCT-116 is 12.5 µM (inactive); in the experiment with HL-60, 14.9 µM (inactive); in the experiment with HOP-92 it was 11.7 µM (inactive); in the experiment with HT-29, 21.6 µM (inactive); in the experiment on Hs-578T, 27 µM (inactive); in the experiment on IGROV-1, 12 µM (inactive). For the same compound, the GI50 is 18 µM (inactive) in the experiment on K562; 13.3 µM (inactive) in the experiment with MDA-MB-435; 13.6 µM (inactive) with NCI-H23; 16.2 µM (inactive) in the experiment on NCI-H460; 15.4 µM (inactive) with OVCAR-5; 15.4 µM (inactive) in the experiment on RXF 393. In addition, the GI50 in the experiment on SK-MEL-5 is 11.1 µM (inactive); with SNB-19, 20.1 µM (inactive); with T47D, 27.8 µM (inactive); in the experiment on UO-31, 15.6 µM (inactive).

Regarding `Cc1cc(O)c(C(c2ccncc2)c2c(O)cc(C)[nH]c2=O)c(=O)[nH]1`, the GI50 in the experiment on HCT-116, with HL-60, in the experiment on HT-29, in the experiment on Hs-578T, with IGROV-1 and with K562 was > 100 µM (inactive) in each case. For the same compound, the GI50 in the experiment with MDA-MB-435, in the experiment on NCI-H23, in the experiment with NCI-H460, in the experiment with OVCAR-5, in the experiment on OVCAR-8 and in the experiment on PC-3 was > 100 µM (inactive) throughout. Besides, the GI50 with RPMI-8226, in the experiment with RXF 393, with SK-MEL-5, in the experiment on SNB-19, in the experiment with T47D and with UO-31 was > 100 µM (inactive) throughout.

In the case of `COC(=O)C1(C(=O)OC)Cc2ccc(C)cc2C2=C1C(=O)c1ccccc1C2=O`, the GI50 with HCT-116 is 18.2 µM (inactive); in the experiment on HL-60, 31.6 µM (inactive); in the experiment with HOP-92 it was 20 µM (inactive); in the experiment on HT-29, 21.7 µM (inactive); with Hs-578T it was 24.6 µM (inactive); in the experiment on IGROV-1, 19.4 µM (inactive). Also, the GI50 with K562 is 18.2 µM (inactive); with MDA-MB-435, 15.6 µM (inactive); with NCI-H23, 18.2 µM (inactive); with NCI-H460, 40.6 µM (inactive); with OVCAR-5, 21 µM (inactive); in the experiment with OVCAR-8 it was 13.3 µM (inactive). Moreover, the GI50 in the experiment with PC-3 is 15.2 µM (inactive); in the experiment on SK-MEL-5, 15 µM (inactive); in the experiment with SNB-19 it was 58.6 µM (inactive); in the experiment on T47D it was 7.71 µM (inactive).

Take `O=C(N/N=C(COc1ccccc1)\N=C\c1cccnc1)c1ccncc1`: the GI50 with HCT-116, in the experiment with HL-60, in the experiment with HT-29, in the experiment with Hs-578T, in the experiment with IGROV-1 and with K562 was > 100 µM (inactive) throughout. The GI50 in the experiment with MDA-MB-435, in the experiment with NCI-H23, in the experiment on NCI-H460, with OVCAR-5, in the experiment on OVCAR-8 and in the experiment on PC-3 was > 100 µM (inactive) throughout. For the same compound, the GI50 with RPMI-8226, with RXF 393, in the experiment with SNB-19 and in the experiment on T47D was > 100 µM (inactive) each time.

For `COC(=O)c1sc(=S)sc1SCc1ccc(CSc2sc(=S)sc2C(=O)OC)cc1`, the GI50 in the experiment on HCT-116, in the experiment with HOP-92, in the experiment with HT-29, with Hs-578T, with IGROV-1 and with K562 was > 100 µM (inactive) throughout. Further, the GI50 with MDA-MB-435, in the experiment with NCI-H23, in the experiment on NCI-H460, in the experiment with OVCAR-5, in the experiment with OVCAR-8 and in the experiment with PC-3 was > 100 µM (inactive) each time. Besides, the GI50 in the experiment on RXF 393, with SK-MEL-5, with SNB-19, in the experiment on T47D and with UO-31 was > 100 µM (inactive) each time.

Consider `Cc1ccc2c(c1)-c1nc(N)c(C#N)c(-c3ccc(Cl)cc3)c1CCS2(=O)=O`, for which the GI50 in the experiment on HCT-116 is 33 µM (inactive); in the experiment with HL-60, 17.7 µM (inactive); in the experiment with HOP-92 it was 36.1 µM (inactive); in the experiment with HT-29, 21.4 µM (inactive); in the experiment on Hs-578T, 43 µM (inactive); in the experiment with IGROV-1 it was 43.1 µM (inactive). The GI50 in the experiment with MDA-MB-435 was 31.3 µM (inactive); in the experiment with NCI-H23, 39.4 µM (inactive); in the experiment with NCI-H460, 35.2 µM (inactive); in the experiment with OVCAR-8, 32 µM (inactive); in the experiment on PC-3 it was 26.8 µM (inactive); with SK-MEL-5 it was 18.2 µM (inactive). Moreover, the GI50 is 50.6 µM (inactive) in the experiment on SNB-19, 33.2 µM (inactive) in the experiment with T47D and 20 µM (inactive) with UO-31.

Turning to `CCOC(=O)c1cc2c(=Cc3ccc(N(C)C)cc3)c3ccccc3n2[n+]1C`, the GI50 is 0.537 µM (active) with HCT-116; 0.372 µM (active) with HL-60; 2.88 µM (inactive) in the experiment on HOP-92; < 0.01 µM (active) in the experiment on HT-29; 0.787 µM (active) with K562; 2.55 µM (inactive) in the experiment with NCI-H23. The GI50 with NCI-H460 is 2.44 µM (inactive); with OVCAR-5, 5.98 µM (inactive); in the experiment on PC-3 it was 0.574 µM (active); in the experiment on RPMI-8226 it was 0.301 µM (active); in the experiment on RXF 393, 1.63 µM (inactive); in the experiment with SK-MEL-5 it was 1.32 µM (inactive). For the same compound, the GI50 with SNB-19 is 2.15 µM (inactive); with T47D it was 3.12 µM (inactive); in the experiment on UO-31, 6.12 µM (inactive).
